The subject of data set [1] is Rattus norvegicus. Nature of the data set: Diuretic activity in po dosed albino Wistar-TNO rat assessed as 100% increase in urinary volume measured for 5 hrs. Format: functional, Urine.
Data set [2] is filed under the species Canis familiaris. The experiment in a line: Natriuretic activity in non-loaded Beagle dog. The format is functional, organism-based. To be noted: Canis lupus familiaris.
Data set [3] concerns Rhesus monkey. Nature of the data set: Diuretic activity in rhesus monkey. Format: functional, organism-based. The conditions noted are these: Macaca mulatta; Urine.
Data set [4] relates to Rattus norvegicus. Nature of the data set: Toxicity in po dosed albino Wistar-TNO rat assessed as uric acid excretion. The format is organism-based. To be noted: in vivo.
For data set [5], the species on record is Mus musculus. The experiment in a line: Diuretic activity in mouse. The conditions noted are these: Urine. Format: functional, organism-based.
For data set [6], the system named is Rattus norvegicus. Nature of the data set: Diuretic activity in experimentally-induced oedema rat model. The format is functional, organism-based. The conditions noted are these: Urine.
In data set [7] the test system is Rattus norvegicus. The experiment in a line: Diuretic activity in po dosed albino Wistar-TNO rat assessed as rapid onset of action. The format is functional, organism-based. The conditions noted are these: Urine.
For data set [8], the species on record is Rattus norvegicus. Nature of the data set: Diuretic activity in experimentally-induced acidosis rat model. Format: functional, organism-based. The conditions noted are these: Urine.
The test system of data set [9] is Rattus norvegicus. Nature of the data set: Diuretic activity in po dosed albino Wistar-TNO rat measured after chronic administration. To be noted: Urine. Format: functional, organism-based.
The species entered for data set [10] is Rattus norvegicus. Nature of the data set: Diuretic activity in experimentally-induced alkalosis rat model. Format: functional, organism-based. To be noted: Urine.
In data set [11] the test system is Hamster. The experiment in a line: Diuretic activity in hamster. Format: functional, organism-based. To be noted: Cricetinae; Urine.
Data set [12] concerns Rattus norvegicus. The experiment in a line: Natriuretic activity in po dosed albino Wistar-TNO rat assessed as Na/K ratio. Format: functional, organism-based.
The species entered for data set [13] is Rattus norvegicus. The experiment in a line: Ratio of furosemide ED200 to compound ED200 for diuretic activity in albino Wistar-TNO rat. The format is functional, Urine.
The subject of data set [14] is Rattus norvegicus. The experiment in a line: Toxicity in po dosed albino Wistar-TNO rat at 50 times effective dose for diuresis measured after chronic administration. Format: organism-based. To be noted: in vivo.
In data set [15] the test system is Rattus norvegicus. Nature of the data set: Diuretic activity in po dosed albino Wistar-TNO rat assessed as increase in urinary volume measured for 5 hrs. Format: functional, organism-based. To be noted: Urine.
For data set [16], the system named is Rattus norvegicus. Nature of the data set: Diuretic activity in po dosed albino Wistar-TNO rat assessed as time duration of action. The format is functional, Urine.
Data set [17] has as its system Rattus norvegicus. Nature of the data set: Diuretic activity in albino Wistar-TNO rat assessed as increase in urinary volume at 50 mg/kg, po measured for 5 hrs. Format: functional, organism-based. The conditions noted are these: Urine. More on the design: dose 50 mg/kg.

Calls of active or inactive are those of the source. No cut-off for these calls is given here.

As for `CCOCC1COc2c(cc3[nH]cc(C(=O)OCC)c(=O)c3c2C(F)(F)F)O1` (stereo not given), in [1], the ED200 came to 0.5 mg/kg.

For `CCOCC1COc2c(cc3[nH]cc(C(=O)OCC)c(=O)c3c2[N+](=O)[O-])O1` (stereo not given), the ED200 in data set [1] was found to be 3 mg/kg.

With `CCOCC1COc2cc3[nH]cc(C(=O)OCC)c(=O)c3c(Cl)c2O1` (stereo not given), the ED200 in [1] stood at 2.5 mg/kg.

As to `CCOCC1COc2c(cc3[nH]cc(C(=O)O)c(=O)c3c2Cl)O1` (stereo not given), the outcome in data set [2], in data set [3], in data set [6], in data set [7], in data set [8] and in data set [9] was Active. Further, the result in data set [10] and in data set [12] was Active. For the same molecule, the Activity result in [4] was “Toxic”; in data set [14], “Non-toxic”; in data set [15], “Dose-dependent effect”. Moreover, the outcome in data set [5] and in [11] was inactive. For the same molecule, the ED200 in [1] is 0.14 mg/kg. For the same molecule, the Ratio in data set [13] was 200. Further, in [16], the Time was determined as 8 h.

Take `CCOCC1COc2cc3c(=O)c(C(=O)OCC)c[nH]c3c(Cl)c2O1` (stereo not given): in [17], the outcome was inactive.

With `CCOCC1COc2cc3c(=S)c(C(=O)OCC)c[nH]c3cc2O1` (stereo not given), the ED200 in data set [1] worked out at 13 mg/kg.

Regarding `CCOCC1COc2c(c(Cl)c3[nH]cc(C(=O)OCC)c(=O)c3c2Cl)O1` (stereo not given), in [17], the result was inactive.

For `NS(=O)(=O)c1cc2c(cc1Cl)N=CNS2(=O)=O` [CHLOROTHIAZIDE], the ED200 in data set [1] turned out to be 30 mg/kg. Further, the Activity entry in data set [15] is “Dose-dependent effect”.

In the case of `CCOCC1COc2cc3c(=O)c(C(=O)OCC)c[nH]c3cc2O1` (stereo not given), the ED200 in [1] was 3.8 mg/kg.

`CCOCC1COc2c(cc3[nH]cc(C(=O)OCC)c(=N)c3c2Cl)O1` (stereo not given): in data set [1], the ED200 came out at 2 mg/kg.

With `CCOCC1COc2c(cc3[nH]cc(C(=O)OCC)c(=O)c3c2Cl)O1` (stereo not given) [QUINCARBATE], the result in data set [2], in data set [3], in [6], in data set [7], in data set [8] and in [9] was Active. Besides, the outcome in data set [10] and in [12] was Active. The Activity result in data set [4] is “Toxic”; in data set [14] it was “Non-toxic”; in [15], “Dose-dependent effect”. Besides, the outcome in data set [5] and in data set [11] was inactive. Also, the ED200 in data set [1] is 0.08 mg/kg. The Ratio in data set [13] is on record as 200. Further, the Time in data set [16] worked out at 8 h.

`CCOCC1COc2c(cc3[nH]cc(C(=O)OCC)c(=O)c3c2Br)O1` (stereo not given): the ED200 in data set [1] amounted to 0.4 mg/kg.

Regarding `NS(=O)(=O)c1cc(C(=O)O)c(NCc2ccco2)cc1Cl` [FUROSEMIDE], in data set [1], the ED200 turned out to be 28 mg/kg. In addition, in [15], the Activity result was “Dose-dependent effect”.

These data come from ChEMBL document CHEMBL3272074, “A new class of diuretics with the 1,4-dioxino(2,3-g)quinolone structure” (J Med Chem, 1976).
